Reference: ChEMBL document CHEMBL1150020, “Optical isomers of RP 64406: New potent antiglutamate agents” (1993)

Test system: Rattus norvegicus
Assay: Ability to protect against glutamate-induced convulsion in rat upon i.p. administration
Type: functional
[1] = Rattus norvegicus, ip, read-out: ED50

SMILES	ED50 [1]	ED50
C[S+]([O-])CCn1c(=N)sc2cc(OC(F)(F)F)ccc21 (single isomer, unassigned; (-))	1.6 mg/kg	–
CSCCn1c(=N)sc2cc(OC(F)(F)F)ccc21	1 mg/kg	–
C[S+]([O-])CCn1c(=N)sc2cc(OC(F)(F)F)ccc21 (stereo in doubt; 3)	–	1.1 mg/kg
C[S+]([O-])CCn1c(=N)sc2cc(OC(F)(F)F)ccc21 (single isomer, unassigned; (+))	–	1 mg/kg
Nc1nc2ccc(OC(F)(F)F)cc2s1 [RILUZOLE]	3.2 mg/kg	–
